Measured values reported in a compilation of properties of binary mixtures (doi:10.1021/je400097b).

Assay: xn = mol fraction of the nth substance listed
Conditions: 101 kPa

O + CC[NH+](C)CC.O=S(=O)([O-])C(F)(F)F
Conditions | viscosity [mPa·s]
293.15 K, x1 = 1 | 1.2

CC[NH+](C)CC.O=S(=O)([O-])C(F)(F)F + O
viscosity [mPa·s]
Conditions | x2 = 0.037 | x2 = 0.434 | x2 = 0.586 | x2 = 0.759 | x2 = 0.844 | x2 = 0.925 | x2 = 0.972
293.15 K | 53.3 | 22.3 | 14.5 | – | 4.99 | 2.86 | 1.69
313.15 K | – | 12.1 | 7.98 | 4.38 | 2.89 | 1.75 | 1.2
333.15 K | 14.6 | – | 4.97 | – | – | 1.28 | 1.01
353.15 K | 9.18 | – | 3.38 | – | 1.45 | 1.08 | 0.91
